Laboratory results reported in US20090017105A1, “PROLIPOSOMAL AND LIPOSOMAL COMPOSITIONS OF POORLY WATER SOLUBLE DRUGS” (priority 2007, published 2009).
Counter-ions that a name gives are not always drawn. Like-named read-outs stand apart in the source and are kept apart here.

Assays:
[1] = cited from earlier work; for entrapment in the liposomes: Mayhew et al., U.S. Pat. No. 5,939,567 and 6,118,011
[2] = cited from earlier work
[3] = Durr et al., U.S. Pat. No. 5,670,536; cited from earlier work
SKOV3 = assay: In vitro cytotoxicity, 72 hour MIT assay; assay type: cell-based; details: Homo sapiens, SK-OV-3; Ovary, SKOV3, 72 hour
Description: (§1) The cytotoxicity of the Liposomal composition of Docetaxel (hereinafter referred to as “LD”) in vitro in a panel of human cancer cell lines, expected to be sensitive to Docetaxel and the effects were compared with the conventional, approved, marketed composition of Docetaxel, viz. Taxotere® (hereinafter referred to as “CD”). A solution of bulk Docetaxel in DMSO was taken as a positive control for the studies.

DU145 = assay: In vitro cytotoxicity, 72 hour MIT assay; assay type: cell-based; details: Homo sapiens, DU-145; Prostrate, DU145, 72 hour
Description: as §1

MDA MB 453 = assay: In vitro cytotoxicity, 72 hour MIT assay; assay type: cell-based; details: Homo sapiens; Breast, MDA MB 453, 72 hour
Description: as §1

PAI = assay: In vitro cytotoxicity, 72 hour MIT assay; assay type: cell-based; details: Homo sapiens, Ovary
Description: as §1

[4] = Ogawa et al., U.S. Pat. No. 5,094,854, cited from earlier work
[5] = liposome system of Hager et al.

Compound: CCCCCC(=O)OC(C(=O)OC1CC2(O)C(OC(=O)c3ccccc3)C3C4(OC(C)=O)COC4CC(O)C3(C)C(=O)C(OC(C)=O)C(=C1C)C2(C)C)C(NC(=O)c1ccccc1)c1ccccc1 (stereo not shown) [2′-caproyl Paclitaxel]
- entrapment in the liposomes [1]: about 70%

Compound: COc1cccc2c1C(=O)c1c(O)c3c(c(O)c1C2=O)C[C@@](O)(C(=O)CO)C[C@@H]3O[C@H]1C[C@H](N)[C@H](O)[C@H](C)O1 [Doxorubicin hydrochloride]
- encapsulation ([1]; liposome system of Hager et al., U.S. Pat. No. 5,556,637 and 5,741,517): 78%

Compound: CCCCCC(=O)OC1CC2OCC2(OC(C)=O)C2C(OC(=O)c3ccccc3)C3(O)CC(OC(=O)C(O)C(NC(=O)c4ccccc4)c4ccccc4)C(C)=C(C(OC(C)=O)C(=O)C12C)C3(C)C (stereo not shown) [7-caproyl Paclitaxel]
- entrapment in the liposomes [1]: about 90%

Compound: COc1cccc2c1C(=O)c1c(O)c3c(c(O)c1C2=O)C[C@@](O)(C(=O)CO)C[C@@H]3O[C@H]1C[C@H](N)[C@H](O)[C@H](C)O1 [Doxorubicin]
- drop in potency ([2]; lyophilized liposomal composition of Huang et al., WO 92/02208, in two weeks): 10-15%
- drug entrapment in the liposomes ([1]; liposomes of Barenholz et al., U.S. Pat. No. 4,797,285 and 4,898,735): 85-90%
- entrapment of the drug ([1]; thermosensitive liposomes of Needham et al., U.S. Pat. No. 6,200,598 and 6,726,925 B1): not more than 80%

Compound: CC(=O)O[C@@]12CO[C@@H]1C[C@H](O)[C@@]1(C)C(=O)[C@H](O)C3=C(C)[C@@H](OC(=O)[C@H](O)[C@@H](NC(=O)OC(C)(C)C)c4ccccc4)C[C@@](O)([C@@H](OC(=O)c4ccccc4)[C@H]21)C3(C)C [Docetaxel Solution in DMSO, Docetaxel]
- period for which liposomal compositions remain clear ([2]; Durr et al., U.S. Pat. No. 5,670,536, 20° C.): more than eight weeks
- particle diameter [3]: 47 to 71 nm
- IC50 (SKOV3): 9.87 ± 2.74 nM
- IC50 (DU145): 5.13 ± 1.28 nM
- IC50 (MDA MB 453): 15.1 ± 2.3 nM
- IC50 (PAI): < 0.01 nM

Compound: N.N.[Cl][Pt][Cl] [Cisplatin]
- rate of release of the drug ([4]; 39° C.): hardly anything
- rate of release of the drug ([4]; 42° C.): 30 to 95%

Compound: Quinoline yellow
- liposome-bound active principle [1, 5]: 1.38 mg/mL
- non-liposomal-bound active principle [1, 5]: about 3.2 mg/ml
